Test results from patent US9085605B2, “Chemical synthesis and anti-tumor and anti-metastatic effects of dual functional conjugate” (Shenzhen Salubris Pharmaceuticals Co., Ltd., priority 2010, dated 2015).
Like-named read-outs stand apart in the source and are kept apart here.

Legend:
[1] = tested on: 60 human tumor cell lines; test: NCI screening of antitumor activity in vitro in 60 human tumor cell lines; assay type: cell-based
Excerpt: The experimental results refer to FIGS. 1-12.

[2] = tested on: 10 human tumor cell lines; test: Antitumor activity screening in 10 human tumor cell lines; assay type: cell-based
Excerpt: In the invention, the compounds, MTC-301, MTC-302, MTC-303, MTC-304, MTC-305, MTC-306, MTC-307, MDC-308, MDC-403, MDC-404, MDC-405. MDC-406, MDC-407 and MDC-408 were screened their antitumor activity in 10 human tumor cell lines. […] The experimental results refer to FIGS. 13-16.

lewis lung cancer [3] = test: Anti-artificial metastasis on Lewis lung cancer in mice (intravenous inoculation); assay type: in vivo, C57Bl/6 mice; settings: TAXOL 3 mg/kg i.p.
Description: The suspension (0.2 mL/mice, 3×10^5 tumor cell) was inoculated intravenously into the tails of fifty C57Bl/6 mice. […] The tumors, spleen and lung were removed and weighed.

Human lung cancer H460 = settings: for TGI: 24 mg/kg
Description: Through cell culture in vitro, the tumor was inoculated on nude mice, the tumor grew and passaged for the experiment use. • Animals: BALB/c nude mice, ♀, 4˜5 weeks old, were obtained from the Experimental Lab, Chinese Academy of Medical Science, Certificate NO. […] Experiment Method:
The tumor-bearing mice with good tumor growth and good general physical condition were selected and sacrificed. Tumor was isolated in a sterile condition and cut into fragments (diameter for about 2-3 mm) by surgical knife. The fragments were then hypodermically inoculated in posterior axillary of nude mice by means of a trocar.
After the tumors grew naturally for eight days, the average volume of tumors reaches 130 mm^3. The length and width of tumor was measured using vernier calipers, and divided into groups by the tumor volume.
The mice were divided into five groups for observation, each groups had eight mice. […] Respective drug was administrated for each group from the grouping day.
The experiment was terminated 24 hours after the last administration.
During the experimentation, the tumors sizes (length and width) and body weights of mice were measured once every three days. The tumor volume (TV) and relative tumor volume (RTV) were calculated according to the method for references, and the tumor volume growth tendency chart was plotted.
At the end of the experiment, the mice were sacrificed. Tumors were removed and weighed, and the inhibition rate of the tumor growth by drugs was calculated. Statistical significance of the tumor weight, tumor volume and RTV level were evaluated by t-test.
[formula] • (C, average tumor weight of control group; T, average tumor weight of administrated group) • Tumor Volume (TV)=length×width^2/2. • Relative Tumor Volume (RTV) formula: Vt/Vo • (Vo is the volume of TV at the beginning of the grouping, and Vt is the volume of TV at measure time) • Anti-tumor activities were evaluated by Tumor Relative proliferation Rate T/C (%)
[formula] • Therapeutic effect evaluation standard: T/C (%)>40, was judged as invalid; • T/C (%)≦40, and through statistical evaluation P<0.05, was judged as valid.

[4] = tested on: Mice breast cancer cell line (4T1, ATCC CRL2539); settings: TAXOL 3 mg/kg i.p. once daily
Description: Mice breast cancer cell line (4T1, ATCC CRL2539) was a generous gift from Prof. Wei Liang of the Institute of biophysics, Chinese Academy of Sciences. The cell was cultured in the 1640 medium (Gibco) containing 10% fetal bovine serum (FBS), 1% glutamine and 1% penicillin.
4T1 cells in logarithmic phase were collected and the concentration was adjusted to 2×10^6/mL. 4T1 tumors were introduced in female BALB/c mice by injecting subcutaneously into the fourth fat pad area of the right abdominal mammary gland with the dose of 2×10^5/0.1 mL. […] From the 9th day after implantation, tumor growth was measured every 2 days with vernier calipers for determining the long diameter and short diameter of tumor. Tumor volume was calculated by the formula (½)×long diameter×short diameter^2. Drug was withdrawn on the twenty-eight days after the implantation, all mice were then sacrificed and the body weight were measured. The tumors, spleen and lung were removed and weighed. The lungs were fixed in Bouin's fixative for 24 h. The numbers of lung metastasis nodule were counted, the statistics was evaluated using Mann-Whitney U test.

[5] = tested on: human breast cancer line MDA-MB-231; test: Tumor growth inhibition in nude mice xenograft model, MDA-MB-231; settings: Paclitaxel 24 mg/kg × 4, intermittent i.p.
Description: • 1. […] Drug administration dose were set as: 10 mg/kg, 15 mg/kg, and 20 mk/kg, drug administration volume was 0.2 mL/20 g. • 2. […] MDA [Peptide (P) 0.54 mg/mL (0.001M), Example 10], a colorless and clear liquid, was prepared by the commission, can be directly used after the repackaging in a sterile condition, stored at 4° C. […] Certificate NO. […] SYSK (BeiJing) 2004-0001. Experiment Methods:
The mice were divided into groups and administrated drug after 11 days.
The mice were divided into eight groups, each group had 6-8 mice. The groups contained Negative control. […] After grouping, all mice were administrated with drug by intraperitoneal injection once a day depends on their body weight.
Other groups were administered with drugs for 24 times successively. The experiment was completed 24 h after the last administration.
The mice were sacrificed, and tumors were isolated and their weight was measured, and the inhibition rate of tumor growth by drugs were calculated. […] Calculation methods and formula were omitted.

lewis lung cancer [6] = settings: TAXOL 6 mg/kg i.p. once daily
Description: C57Bl/6 mice with lewis lung cancer were sacrificed and the tumor was removed. The tumor cell suspension (5×10^6 cell/mL) was prepared in a sterile condition. The suspension (0.2 mL/mice, 1×10^6 tumor cell) was inoculated subcutaneously into the axillary of 24 C57Bl/6 mice. […] From the 7th day after the implantation, the long diameter and short diameter of tumor was measured every 2 days. Tumor volume was calculated by the formula (½)×long diameter×short diameter^2. Drug was withdrawn on the eighteenth day after the implantation. All mice were then sacrificed and the body weight was measured. The tumors, spleen and lung were removed and weighed. The lungs were fixed in Bouin's fixative for 24 h. The numbers of lung metastasis nodule were counted, and the statistics was evaluated by Mann-Whitney U test.

[7] = Paclitaxel injection 24 mg/kg × 4, once every three days

CC(=O)O[C@H]1C(=O)[C@@]2(C)[C@H]([C@H](OC(=O)c3ccccc3)[C@]3(O)C[C@H](OC(=O)[C@H](OC(=O)CCC(=O)NCCCCC(NC(=O)CC[C@H](NC(=O)C(C)NC(=O)/C=C/c4ccc(C)cc4)C(N)=O)C(N)=O)[C@@H](NC(=O)c4ccccc4)c4ccccc4)C(C)=C1C3(C)C)[C@]1(OC(C)=O)CO[C@@H]1C[C@@H]2O (stereo partly drawn) [MTC-302]
50% growth inhibition (GI50) activity [1]: in the same magnitude range as paclitaxel | 50% growth inhibition (GI50) activity [2]: in the same magnitude range as paclitaxel or docetaxel

CC(=O)O[C@H]1C(=O)[C@@]2(C)[C@H]([C@H](OC(=O)c3ccccc3)[C@]3(O)C[C@H](OC(=O)[C@H](O)[C@@H](NC(=O)c4ccccc4)c4ccccc4)C(C)=C1C3(C)C)[C@]1(OC(C)=O)CO[C@@H]1C[C@@H]2O [Paclitaxel, reference compound]
Lung weight (lewis lung cancer [3]): 497 ± 491 mg | Lung metastasis nodule counts (lewis lung cancer [3]; listed as TAXOL): 38.5 ± 28 | Lung metastasis nodule counts (lewis lung cancer [3]; listed as Taxol): no significant improvement | Body weight Beginning (Human lung cancer H460; [7]): 18.9 ± 1.28 g | Body weight End (Human lung cancer H460; [7]): 18.6 ± 1.41 g | RTV (Human lung cancer H460; [7]): 11.9 ± 3.16 | T/C (Human lung cancer H460; [7]): 35.6% | Tumor volume Beginning (Human lung cancer H460; [7]): 130 ± 36.7 mm^3 | Tumor volume End (Human lung cancer H460; [7]): 1583 ± 507.2 mm^3 | Tumor weight (Human lung cancer H460; [7]): 1.16 ± 0.410 g | TGI (Human lung cancer H460; Paclitaxel injection 24 mg/kg × 4, once every three days, listed as Paclitaxel injection): 61.0% | TGI (Human lung cancer H460; Paclitaxel injection 24 mg/kg × 4, once every three days, listed as paclitaxel): 61% | Body weight lost compared with the average weight at the beginning of grouping (Human lung cancer H460; paclitaxel 24 mg/kg intermittently): 2 | Tumor growth inhibition rate compared with negative control (Human lung cancer H460; paclitaxel 24 mg/kg, after the fourth administration): 65% | Lung weight [4]: 190 ± 49 mg | Lung metastasis nodule counts ([4]; listed as TAXOL): 41.2 ± 9 | Lung metastasis nodule counts ([4]; listed as Taxol): no significant improvement | RTV [5]: 3.18 ± 2.735 | T/C [5]: 17.64% | TGI [5]: 84.9% | Tumor volume Beginning [5]: 133 ± 39.8 mm^3 | Tumor volume End [5]: 422 ± 404.6 mm^3 | Tumor weight [5]: 0.43 ± 0.416 g | Lung metastasis nodule counts (lewis lung cancer [6]; listed as TAXOL): 24.9 ± 9 | Lung metastasis nodule counts (lewis lung cancer [6]; listed as Taxol): no significant improvement
